target: T1, human FXR (Homo sapiens, UniProt Q96RI1); experiment: transient human FXR/Gal4-luciferase reporter assay; type: cell-based; conditions: Gal4-hFXR (ligand binding domain) fusion transiently transfected in HEK293 Gal4-luciferase reporter cells; overnight incubation; response as percentage of 8 μM GW-4064 control
T1 construct: expressed in transfected cells
T1 sequence (Q96RI1 262-486 limits assumed): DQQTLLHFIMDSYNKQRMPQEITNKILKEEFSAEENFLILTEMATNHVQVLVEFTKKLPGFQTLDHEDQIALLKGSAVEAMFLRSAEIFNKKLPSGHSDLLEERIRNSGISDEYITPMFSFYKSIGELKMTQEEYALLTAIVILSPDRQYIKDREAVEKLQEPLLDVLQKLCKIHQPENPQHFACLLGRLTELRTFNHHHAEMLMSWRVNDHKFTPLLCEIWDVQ
Protocol: A Gal4-hFXR fusion construct reporter system was used as the primary assay to characterize compound activity. A construct including 5 copies of the Gal4 promoter response element upstream of a firefly luciferase reporter cDNA was stably expressed in HEK293 cells. This reporter cell line was maintained in Dulbecco's Modified Eagle's medium (DMEM; Gibco) supplemented with 1% penicillin-streptomycin (P/S) solution, 500 μg/ml Zeocin and 10% charcoal/dextran-treated fetal bovine serum (cs-FBS) at 37° C. in a humidified 5% CO2 atmosphere. Another plasmid was constructed in which the human cytomegalovirus promoter in the pcDNA3.1 vector directs the expression of the cDNA encoding a fusion protein comprised of the DNA binding domain from the Gal4 transcription factor fused to the ligand binding domain from human FXR.
The day prior to transfection, the reporter cells in culture are detached from the plate with trypsin and plated into a T75 flask at a sufficient density to achieve approximately 90% confluence the next morning. The transfection reagents are prepared by separately diluting 25 μg of the pcDNA3.1-Gal4-FXR plasmid into 1.87 mL of Opti-MEM (Thermo-Fisher), and 40 μL of Lipofectamine 2000 (Thermo-Fisher) into 1.87 mL of Opti-MEM, and then adding the diluted DNA solution into the diluted Lipofectamine 2000 solution and incubating at room temperature for 15-20 minutes. The mixture is further diluted with 10 ml of a solution comprised of DMEM, 10% cs-FBS, and 1% P/S immediately prior to transferring to the cells. The maintenance culture media is aspirated from the cells and the final transfection mixture is added before the cells are incubated overnight at 37° C. in a humidified 5% CO2 atmosphere. This protocol can be scaled up, and the transiently transfected cells can be cryopreserved in an assay-ready format.
For compound testing, 100 nL of the compounds (serial dilutions in DMSO) are dispensed with an Echo acoustic dispenser (Labcyte) into the wells of a Corning/Costar clear bottom 384-well white plate. The transfected cells are harvested, counted, and diluted such that 10-25,000 cells in 25 μL are plated into each well of the 384-well compound assay plate. The compound-treated cells are incubated overnight at 37° C. in a humidified 5% CO2 atmosphere. The next morning 25 μL of Steady-Glo (Promega) are added to each well of the plate, the mixture is incubated for 15 min. with shaking, and luminescence is measured on an Envision (Perkin Elmer) plate reader.

| Compound | EC50 |
| --- | --- |
| COC(=O)/C=C/c1cccc(N(CC23CCC(c4nc5ccccc5s4)(CC2)CC3)C(=O)C2CCCCC2)c1 [Example 34, Methyl (E)-3-(3-(N-((4-(benzo[d]thiazol-2-yl)bicyclo[2.2.2]octan-1-yl)methyl)cyclohexanecarboxamido)phenyl)acrylate] | 222 nM |
| COC(=O)/C=C/c1cccc(N(C(=O)C2CCCCC2)C(C)C23CCC(c4nc(C)no4)(CC2)CC3)c1 (single isomer, unassigned) [Example 47, Methyl (E)-3-(3-(N-(1-(4-(3-methyl-1,2,4-oxadiazol-5-yl)bicyclo[2.2.2]octan-1-yl)ethyl)cyclohexanecarboxamido)phenyl)acrylate] | 152 nM |
| COC(=O)/C=C/c1cccc(N(CC23CCC(c4nc(C)no4)(CC2)CC3)C(=O)C2CCOCC2)c1 [Example 23, Methyl (E)-3-(3-(N-((4-(3-methyl-1,2,4-oxadiazol-5-yl)bicyclo[2.2.2]octan-1-yl)methyl)tetrahydro-2H-pyran-4-carboxamido)phenyl)acrylate] | 920 nM |
| COC(=O)/C=C/c1cccc(N(CC23CCC(c4ccc(C(C)C)cc4)(CC2)CC3)C(=O)C2CCCCC2)c1 [Example 38, Methyl (E)-3-(3-(N-((4-(4-isopropylphenyl)bicyclo[2.2.2]octan-1-yl)methyl)cyclohexanecarboxamido)phenyl)acrylate] | 196 nM |
| COC(=O)/C=C/c1cccc(N(CC23CCC(c4ccc5c(cnn5C)c4)(CC2)OC3)C(=O)C2CCOCC2)c1 [Example 8, (E)-Methyl 3-(3-(N-((1-(1-methyl-1H-indazol-5-yl)-2-oxabicyclo[2.2.2]octan-4-yl)methyl)tetrahydro-2H-pyran-4-carboxamido)phenyl)acrylate] | 1600 nM |
| COC(=O)/C=C/c1cccc(N(CC23CCC(c4nc(C)no4)(CC2)CC3)C(=O)C(C)C)c1 [Example 22, methyl (E)-3-(3-(N-((4-(3-methyl-1,2,4-oxadiazol-5-yl)bicyclo[2.2.2]octan-1-yl)methyl)isobutyramido)phenyl)acrylate] | 849 nM |
| COC(=O)/C=C/c1cccc(N(C(=O)C2CCCCC2)C(C)C23CCC(c4nc(C)no4)(CC2)CC3)c1 (single isomer, unassigned) [Example 46, Methyl (E)-3-(3-(N-(1-(4-(3-methyl-1,2,4-oxadiazol-5-yl)bicyclo[2.2.2]octan-1-yl)ethyl)cyclohexanecarboxamido)phenyl)acrylate] | 302 nM |
| COC(=O)C1=Cc2cccc(N(CC34CCC(c5nc(C)no5)(CC3)CC4)C(=O)C3CCCCC3)c2CC1 [Example 40, Methyl 5-(N-((4-(3-methyl-1,2,4-oxadiazol-5-yl)bicyclo[2.2.2]octan-1-yl)methyl)cyclohexanecarboxamido)-3,4-dihydronaphthalene-2-carboxylate] | 1070 nM |

Second part, the compound after the results:

| EC50 | Compound |
| --- | --- |
| 118 nM | COC(=O)/C=C/c1cccc(N(CC23CCC(c4nc(N5CCOCC5)no4)(CC2)CC3)C(=O)C2CCCCC2)c1 [Example 42, Methyl (E)-3-(3-(N-((4-(3-morpholino-1,2,4-oxadiazol-5-yl)bicyclo[2.2.2]octan-1-yl)methyl)cyclohexanecarboxamido)phenyl)acrylate] |
| 87 nM | COC(=O)/C=C/c1cccc(N(CC23CCC(c4noc(C)n4)(CC2)CC3)C(=O)C2CCCCC2)c1 [Example 44, Methyl (E)-3-(3-(N-((4-(5-methyl-1,2,4-oxadiazol-3-yl)bicyclo[2.2.2]octan-1-yl)methyl)cyclohexanecarboxamido)phenyl)acrylate] |
| 30 nM | CC(C)(O)C#Cc1cccc(N(CC23CCC(c4nnc(C(C)(C)C)o4)(CC2)CC3)C(=O)C23CC(F)(C2)C3)c1 [Example 48, N-((4-(5-(tert-Butyl)-1,3,4-oxadiazol-2-yl)bicyclo[2.2.2]octan-1-yl)methyl)-3-fluoro-N-(3-(3-hydroxy-3-methylbut-1-yn-1-yl)phenyl)bicyclo[1.1.1]pentane-1-carboxamide] |
| 150 nM | COC(=O)/C=C/c1cccc(N(CC23CCC(c4nc(C)no4)(CC2)CC3)C(=O)C2CCCCCC2)c1 [Example 24, methyl (E)-3-(3-(N-((4-(3-methyl-1,2,4-oxadiazol-5-yl)bicyclo[2.2.2]octan-1-yl)methyl)cycloheptanecarboxamido)phenyl) acrylate] |

From patent US12030835B2, “Substituted amide compounds useful as farnesoid X receptor modulators” (BRISTOL-MYERS SQUIBB COMPANY, priority 2019, dated 2024)
